Patent US10159651B2, “Two-stage microparticle-based therapeutic delivery system and method” (Privo Technologies, Inc., priority 2016, dated 2018)

Experiments:
[1] = permeation of fluorescent dyes from multi-layered device into buccal tissue; type: in vitro ADME, lamb
Excerpt: FIGS. 5A-5C show three images taken from lamb buccal tissue at different time points.
In another representative embodiment, a multi-layered device may be used for the delivery of multiple agents over a prolonged period of time (FIG. 4, FIG. 5). If the example of mucositis is again used, multiple layers may include a pain mitigator in free form, a pain mitigator encapsulated within microparticles and an agent for the treatment of mucositis encapsulated within microparticles. The initial freeform layer is able to provide immediate pain relief, and the subsequent particle-encapsulated layers are capable of delivering microparticles beneath the tissue, where they further release their agents over a period of days, providing longer-term pain relief and treatment. FIG. 4 and FIG. 5 illustrate this effect. Fluorescence was used in order to provide detection. As shown, the multiple fluorescent layers released over time and permeated the tissue at different rates, providing a customized treatment.

[2] = release profile of cisplatin from particles, detected by atomic absorption spectrometry; type: physicochemical; conditions: over 60 hours; particles of average diameter 500 to 2000 nm
Excerpt: FIG. 1 is a graph showing the release profile of example particles having an average diameter in the range of 500 to 2000 nm. […] Cisplatin was used for this experiment due to its use in the treatment of oral cancer and its ease of detection via atomic absorption spectrometry (AAS).

| permeation into tissue ([1]; after 30 minutes) | permeation into tissue ([1]; after 1 hour) | SMILES | cisplatin released from NPs [2] [%] |
| --- | --- | --- | --- |
| beginning to permeate the tissue | permeating deeper into the tissue | O=C1OC2(c3ccc(O)cc3Oc3cc(O)ccc32)c2ccc(N=C=S)cc21 [FITC] |  |
|  |  | N.N.[Cl][Pt][Cl] [cisplatin, Cisplatin] | 45 |
